Reference: ChEMBL document CHEMBL4118187, “In vitro activity of salicylamide derivatives against vancomycin-resistant enterococci” (Bioorg Med Chem Lett, 2018)
≈ marks a conversion by molar mass, not a printed value. Calls of active or inactive are those of the source. The rule behind the calls is not given here.

Experiments:
[1] = system: Enterococcus faecalis; assay: Antibacterial activity against vancomycin-resistant Enterococcus faecalis 342B in presence of vancomycin after 18 hrs by checkerboard assay; format: functional
[2] = system: Enterococcus faecalis; assay: Antibacterial activity against vancomycin-resistant Enterococcus faecalis 725B in presence of ciprofloxacin after 18 hrs by checkerboard assay; format: functional
[3] = system: Enterococcus faecalis; assay: Bacteriostatic activity against vancomycin-resistant Enterococcus faecalis 342B up to 24 hrs by time kill assay; format: functional, organism-based
[4] = system: Enterococcus faecalis; assay: Antibacterial activity against vancomycin-resistant Enterococcus faecalis 368 assessed as compound concentration causing additive effect after 18 hrs in presence of vancomycin after 18 hrs by checkerboard assay; format: functional
[5] = system: Enterococcus faecalis; assay: Antibacterial activity against vancomycin-resistant Enterococcus faecalis 725B assessed as compound concentration causing additive effect after 18 hrs in presence of ciprofloxacin by checkerboard assay; format: functional
[6] = system: Enterococcus faecalis; assay: Antibacterial activity against vancomycin-resistant Enterococcus faecalis 342B after 24 hrs; format: functional
[7] = system: Enterococcus faecalis; assay: Antibacterial activity against vancomycin-resistant Enterococcus faecalis 725B after 24 hrs; format: functional
[8] = system: Enterococcus faecalis; assay: Antibacterial activity against vancomycin-susceptible Enterococcus faecalis ATCC 29212 after 24 hrs; format: functional; conditions: ATCC 29212, 24 h
[9] = system: Enterococcus faecalis; assay: Antibacterial activity against vancomycin-resistant Enterococcus faecalis 368 assessed as vancomycin concentration causing additive effect after 18 hrs after 18 hrs by checkerboard assay; format: functional
[10] = system: Enterococcus faecalis; assay: Antibacterial activity against vancomycin-resistant Enterococcus faecalis 725B in presence of tetracycline after 18 hrs by checkerboard assay; format: functional
[11] = system: Enterococcus faecalis; assay: Antibacterial activity against vancomycin-resistant Enterococcus faecalis 368 assessed as tetracycline concentration causing additive effect after 18 hrs after 18 hrs by checkerboard assay; format: functional
[12] = system: Enterococcus faecalis; assay: Antibacterial activity against vancomycin-resistant Enterococcus faecalis 342B in presence of tetracycline after 18 hrs by checkerboard assay; format: functional
[13] = system: Enterococcus faecalis; assay: Antibacterial activity against vancomycin-resistant Enterococcus faecalis 342B assessed as compound concentration causing additive effect after 18 hrs in presence of tetracycline by checkerboard assay; format: functional
[14] = system: Enterococcus faecalis; assay: Antibacterial activity against vancomycin-resistant Enterococcus faecalis 368 assessed as compound concentration causing additive effect after 18 hrs in presence of tetracycline after 18 hrs by checkerboard assay; format: functional
[15] = system: Enterococcus faecalis; assay: Antibacterial activity against vancomycin-resistant Enterococcus faecalis 342B assessed as vancomycin concentration causing additive effect after 18 hrs by checkerboard assay; format: functional
[16] = system: Enterococcus faecalis; assay: Antibacterial activity against vancomycin-resistant Enterococcus faecalis 725B in presence of vancomycin after 18 hrs by checkerboard assay; format: functional
[17] = system: Enterococcus faecalis; assay: Antibacterial activity against vancomycin-resistant Enterococcus faecalis 342B assessed as compound concentration causing additive effect after 18 hrs in presence of vancomycin by checkerboard assay; format: functional
[18] = system: Enterococcus faecalis; assay: Antibacterial activity against vancomycin-resistant Enterococcus faecalis 342B assessed as tetracycline concentration causing additive effect after 18 hrs by checkerboard assay; format: functional
[19] = system: Enterococcus faecalis; assay: Antibacterial activity against vancomycin-resistant Enterococcus faecalis 368 in presence of vancomycin after 18 hrs by checkerboard assay; format: functional
[20] = system: Enterococcus faecalis; assay: Antibacterial activity against vancomycin-resistant Enterococcus faecalis 725B assessed as ciprofloxacin concentration causing additive effect after 18 hrs by checkerboard assay; format: functional
[21] = system: Enterococcus faecalis; assay: Antibacterial activity against vancomycin-resistant Enterococcus faecalis 368 in presence of tetracycline after 18 hrs by checkerboard assay; format: functional
[22] = system: Enterococcus faecalis; assay: Antibacterial activity against vancomycin-resistant Enterococcus faecalis 368 after 24 hrs; format: functional; conditions: Enterococcus faecalis, 368, 24 h
[23] = system: Enterococcus faecalis; assay: Bacteriostatic activity against vancomycin-resistant Enterococcus faecalis 725B up to 24 hrs by time kill assay; format: functional, organism-based

O=C(Nc1ccc([N+](=O)[O-])cc1)c1cc(Cl)ccc1O was tested, and the FIC [1] was 1 - 2.25, the FIC [2] was 1 - 1.25 and the Activity [3] was “Active”. For the same compound, the Activity [4] was 0.063 µg/mL, the Activity [5] was 0.008 µg/mL and the MBC [6] was 6.83 µM (≈ 2 µg/mL). For the same compound, the MIC [6] was 1.71 µM (≈ 0.5 µg/mL), the MBC [7] was 6.83 µM (≈ 2 µg/mL) and the MIC [7] was 3.42 µM (≈ 1 µg/mL). For the same compound, the MBC [8] was 6.83 µM (≈ 2 µg/mL), the MIC [8] was 0.85 µM (≈ 0.249 µg/mL) and the Activity [9] was 512 µg/mL. For the same compound, the FIC [10] was 1.032 - 2.125, the Activity [11] was 16 µg/mL and the FIC [12] was 0.75 - 1.25. The Activity [13] was 0.5 µg/mL, the Activity [14] was 1 µg/mL and the Activity [15] was 64 µg/mL. The FIC [16] was 1.063 - 1.5, the Activity [17] was 0.063 µg/mL and the Activity [18] was 16 µg/mL. The FIC [19] was 0.625 - 1.25, the Activity [20] was 64 µg/mL and the FIC [21] was 0.75 - 1.25. For the same compound, the MBC [22] was over 874 µM, the MIC [22] was 13.7 µM (≈ 4 µg/mL) and the Activity [23] was “Active”.
